For eight molecules, Critical temperature results are on record in the NIST ThermoML archive (doi:10.1021/acs.jced.7b00191).

Numbers after ± are expanded uncertainties.

For this series the following is noted: Liquid; Visual observation in an unstirred cell.
Regarding `Clc1ccccc1Cl` [1,2-dichlorobenzene], the Critical temperature was found to be 698.8 ± 2.8 K. On to `CC(C)CC(C)(C)C` [2,2,4-trimethylpentane], for which the Critical temperature stood at 544 ± 2.8 K. Turning to `CCC(C)(C)C` [2,2-dimethylbutane], the Critical temperature is recorded as 489.4 ± 2.8 K.

As to `c1ccccc1` [benzene], the Critical temperature was determined as 562.2 ± 2.8 K. Take `Fc1ccccc1` [fluorobenzene]: the Critical temperature stood at 557.3 ± 2.8 K. Consider `CCCCCCC` [heptane], for which the Critical temperature worked out at 540.6 ± 2.8 K. As for `CCCCCC` [hexane], the Critical temperature was found to be 507.4 ± 2.8 K. With `CCCCCCCC` [octane], the Critical temperature is 568.8 ± 2.8 K.
